Data from patent US20240300927A1, “AMIDES AS CBL-B INHIBITORS” (Genentech, Inc., priority 2021, published 2024).

Key:
c-Cbl = c-Cbl (Homo sapiens (Human), UniProt P22681); test: C-cbl LCK Ub TR-FRET assay (C-cbl Lck HTRF); assay type: biochemical
Experimental: (§1) Compounds were 3-fold serially diluted in DMSO in a 384-well polypropylene plate (#P-05525-BC; Labcyte) to generate a source plate with 10 concentrations of each compound, top concentration=2 mM. 80 nL of DMSO or compounds were transferred to each well of a black 384-well ProxiPlate (#6008260; PerkinElmer) using a Labcyte Echo. 1× assay buffer (50 mM HEPES pH7.0, 100 mM NaCl, 0.01% BSA, 0.01% Triton-X100, 1 mM DTT), 2× enzyme solution (16 nM Biotin-Cbl-b or 12 nM Biotin-c-Cbl in 1× assay buffer), 2× kinase mixture (120 nM His-LCK, 1 mM ATP, 10 mM MgCl2 in assay buffer) and 2.33× detection mixture (4.66× solution 1: 163 nM Anti-HA-D2 antibody (#610HADAB; PerkinElmer), 27.96 nM Streptavidin-EU (#AD0062; PerkinElmer), 1.398 mM EDTA in 1× assay buffer+4.66× solution 2: 2.796 μM UBE2D2/Methylated-HA-Ubiquitin thioester adduct (BostonBiochem) in 1× assay buffer) were prepared. 4 μL of 2× enzyme solution was added to each well containing compound, briefly centrifuged to mix, and incubated for 60 min at room temperature. 4 μL of 2× kinase mixture was added, briefly centrifuged to mix, and incubated for 90 min. at room temperature. 6 μL of detection mixture was added to all wells and briefly centrifuged before incubating for 20 min at room temperature. Plates were read for TR-FRET using an Envision at excitation 340 nm, emission at 615 and 665 nm, 4 flashes per well. IC50 was generated using no LCK as the low control and DMSO as the high control.
(§2) Cbl-b Lck HTRF data in Table 3 is measured according to Example 25 herein; C-cbl Lck HTRF data is measured according to Example 25 herein.
(§3) SPR and the LCK biochemical assay are orthogonal assays: SPR is a protein binding assay while the LCK assay is an enzyme activity assay. SPR measures compound binding affinity to CBL-B/C-CBL, whereas LCK assay measures compound inhibition of CBL-B/C-CBL ubiquitin transfer activity.

Cbl-b = Cbl-b (Homo sapiens (Human), UniProt Q13191); test: Cbl-b LCK Ub TR-FRET assay (Cbl-b Lck HTRF); assay type: biochemical; conditions: for (fold-selectivity): Cbl-b and C-Cbl selectivity, Lck HTRF; for IC50: read-out: Cbl-b Lck HTRF IC50
Experimental: as §1, §2, §3

Cbl-b, sequence (Q13191 40-426): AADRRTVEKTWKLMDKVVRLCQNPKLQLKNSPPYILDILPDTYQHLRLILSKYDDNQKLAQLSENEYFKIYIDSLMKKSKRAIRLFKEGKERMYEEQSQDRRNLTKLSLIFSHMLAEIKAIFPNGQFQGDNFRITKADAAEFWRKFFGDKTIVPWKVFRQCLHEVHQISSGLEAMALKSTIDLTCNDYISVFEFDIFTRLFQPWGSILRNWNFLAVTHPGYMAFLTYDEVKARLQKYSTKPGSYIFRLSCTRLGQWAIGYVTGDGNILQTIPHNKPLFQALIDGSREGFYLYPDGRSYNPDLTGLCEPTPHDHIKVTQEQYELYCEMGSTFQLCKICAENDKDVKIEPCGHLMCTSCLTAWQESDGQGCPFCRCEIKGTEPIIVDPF
c-Cbl, sequence (P22681 47-435): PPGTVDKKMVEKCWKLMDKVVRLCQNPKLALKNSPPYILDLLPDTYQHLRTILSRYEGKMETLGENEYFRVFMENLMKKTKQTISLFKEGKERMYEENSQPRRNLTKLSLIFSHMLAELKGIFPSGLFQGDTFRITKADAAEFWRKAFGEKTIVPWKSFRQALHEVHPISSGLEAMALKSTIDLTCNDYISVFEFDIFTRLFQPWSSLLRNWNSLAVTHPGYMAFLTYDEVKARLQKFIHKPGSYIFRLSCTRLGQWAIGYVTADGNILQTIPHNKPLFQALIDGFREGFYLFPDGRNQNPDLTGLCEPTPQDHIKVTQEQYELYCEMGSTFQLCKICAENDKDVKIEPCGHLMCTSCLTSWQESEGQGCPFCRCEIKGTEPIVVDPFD

Cn1cnnc1[C@@H](F)C(C)(F)c1cccc(NC(=O)c2cc(CN3CC(C)(F)C3)nc(C3CC3)n2)c1 (stereo in doubt) [Compound 45, 2-cyclopropyl-N-(3-((1R,2S)-1,2-difluoro-1-(4-methyl-4H-1,2,4-triazol-3-yl)propan-2-yl)phenyl)-6-((3-fluoro-3-methylazetidin-1-yl)methyl)pyrimidine-4-carboxamide]
IC50 (c-Cbl): 16000 nM | (fold-selectivity) (Cbl-b): (1.4x) | IC50 (Cbl-b): 12000 nM

Cn1cnnc1[C@@H](F)C(C)(F)c1cccc(NC(=O)c2cc(CN3CC(C)(F)C3)nc(C3CC3)n2)c1 (stereo in doubt) [Compound 46, 2-cyclopropyl-N-(3-((1R,2R)-1,2-difluoro-1-(4-methyl-4H-1,2,4-triazol-3-yl)propan-2-yl)phenyl)-6-((3-fluoro-3-methylazetidin-1-yl)methyl)pyrimidine-4-carboxamide]
IC50 (c-Cbl): 800 nM | (fold-selectivity) (Cbl-b): (1.9x) | IC50 (Cbl-b): 420 nM

C[C@@H](c1cc(C(=O)Nc2cccc(C3(Cc4nncn4C)COC3)c2)nc(C(F)(F)F)c1)N1CC(F)C1 [Compound 1, (S)-4-(1-(3-fluoroazetidin-1-yl)ethyl)-N-(3-(3-((4-methyl-4H-1,2,4-triazol-3-yl)methyl)oxetan-3-yl)phenyl)-6-(trifluoromethyl)picolinamide]
IC50 (c-Cbl): 250 nM | (fold-selectivity) (Cbl-b): (2.2x) | IC50 (Cbl-b): 110 nM

C[C@H](c1cc(C(=O)Nc2cccc(C3(Cc4nncn4C)COC3)c2)nc(C(F)(F)F)c1)N1CC(F)C1 [Compound 2, (R)-4-(1-(3-fluoroazetidin-1-yl)ethyl)-N-(3-(3-((4-methyl-4H-1,2,4-triazol-3-yl)methyl)oxetan-3-yl)phenyl)-6-(trifluoromethyl)picolinamide]
IC50 (c-Cbl): 370 nM | (fold-selectivity) (Cbl-b): (1.7x) | IC50 (Cbl-b): 220 nM

C[C@@H](c1cc(C(=O)Nc2cccc(C3(Cc4nncn4C)COC3)c2)nc(C(F)(F)F)c1)N1CCC2(CC2)C1 [Compound 3, (S)-4-(1-(5-azaspiro[2.4]heptan-5-yl)ethyl)-N-(3-(3-((4-methyl-4H-1,2,4-triazol-3-yl)methyl)oxetan-3-yl)phenyl)-6-(trifluoromethyl)picolinamide]
IC50 (c-Cbl): 47 nM | (fold-selectivity) (Cbl-b): (1.9x) | IC50 (Cbl-b): 25 nM

C[C@H](c1cc(C(=O)Nc2cccc(C3(Cc4nncn4C)COC3)c2)nc(C(F)(F)F)c1)N1CCC2(CC2)C1 [Compound 4, (R)-4-(1-(5-azaspiro[2.4]heptan-5-yl)ethyl)-N-(3-(3-((4-methyl-4H-1,2,4-triazol-3-yl)methyl)oxetan-3-yl)phenyl)-6-(trifluoromethyl)picolinamide]
IC50 (c-Cbl): 130 nM | (fold-selectivity) (Cbl-b): (1.9x) | IC50 (Cbl-b): 67 nM

Cn1cnnc1[C@H](F)C1(c2cccc(NC(=O)c3cc(CN4CCC5(CC5)C4)cc(C4CC4)n3)c2)COC1 [Compound 5, (R)-4-(5-azaspiro[2.4]heptan-5-ylmethyl)-6-cyclopropyl-N-(3-(3-(fluoro(4-methyl-4H-1,2,4-triazol-3-yl)methyl)oxetan-3-yl)phenyl)picolinamide]
IC50 (c-Cbl): 30 nM | (fold-selectivity) (Cbl-b): (1.6x) | IC50 (Cbl-b): 19 nM

Cn1cnnc1[C@@H](F)C1(c2cccc(NC(=O)c3cc(CN4CCC5(CC5)C4)cc(C4CC4)n3)c2)COC1 [Compound 6, (S)-4-(5-azaspiro[2.4]heptan-5-ylmethyl)-6-cyclopropyl-N-(3-(3-(fluoro(4-methyl-4H-1,2,4-triazol-3-yl)methyl)oxetan-3-yl)phenyl)picolinamide]
IC50 (c-Cbl): 33 nM | (fold-selectivity) (Cbl-b): (1.7x) | IC50 (Cbl-b): 20 nM

Cn1cnnc1[C@H](F)C1(c2cccc(NC(=O)c3cc(CN4CC(C)(F)C4)cc(C4CC4)n3)c2)COC1 [Compound 7, (R)-6-cyclopropyl-N-(3-(3-(fluoro(4-methyl-4H-1,2,4-triazol-3-yl)methyl)oxetan-3-yl)phenyl)-4-((3-fluoro-3-methylazetidin-1-yl)methyl)picolinamide]
IC50 (c-Cbl): 31 nM | (fold-selectivity) (Cbl-b): (1.8x) | IC50 (Cbl-b): 17 nM

Cn1cnnc1[C@@H](F)C1(c2cccc(NC(=O)c3cc(CN4CC(C)(F)C4)cc(C4CC4)n3)c2)COC1 [Compound 8, (S)-6-cyclopropyl-N-(3-(3-(fluoro(4-methyl-4H-1,2,4-triazol-3-yl)methyl)oxetan-3-yl)phenyl)-4-((3-fluoro-3-methylazetidin-1-yl)methyl)picolinamide]
IC50 (c-Cbl): 60 nM | (fold-selectivity) (Cbl-b): (2.0x) | IC50 (Cbl-b): 30 nM

Cn1cnnc1CC1(c2cccc(NC(=O)c3cccc(C(F)(F)F)n3)c2)CC(F)(F)C1 [Compound 16, N-(3-(3,3-difluoro-1-((4-methyl-4H-1,2,4-triazol-3-yl)methyl)cyclobutyl)phenyl)-6-(trifluoromethyl)picolinamide]
IC50 (c-Cbl): 410 nM | (fold-selectivity) (Cbl-b): (1.6x) | IC50 (Cbl-b): 260 nM

Cn1cnnc1C[C@]1(c2cccc(NC(=O)c3cccc(C(F)(F)F)n3)c2)C[C@H](F)C1 [Compound 18, N-(3-((1R,3S)-3-fluoro-1-((4-methyl-4H-1,2,4-triazol-3-yl)methyl)cyclobutyl)phenyl)-6-(trifluoromethyl)picolinamide]
IC50 (c-Cbl): 280 nM | (fold-selectivity) (Cbl-b): (1.1x) | IC50 (Cbl-b): 260 nM

Cn1cnnc1C[C@]1(c2cccc(NC(=O)c3cccc(C(F)(F)F)n3)c2)C[C@@H](F)C1 [Compound 19, N-(3-((1S,3R)-3-fluoro-1-((4-methyl-4H-1,2,4-triazol-3-yl)methyl)cyclobutyl)phenyl)-6-(trifluoromethyl)picolinamide]
IC50 (c-Cbl): 570 nM | (fold-selectivity) (Cbl-b): (2.1x) | IC50 (Cbl-b): 280 nM

Cn1cnnc1[C@H](F)C1(c2cccc(NC(=O)c3cc(CN4CC(C)(F)C4)nc(C4CC4)n3)c2)COC1 [Compound 20, (R)-2-cyclopropyl-N-(3-(3-(fluoro(4-methyl-4H-1,2,4-triazol-3-yl)methyl)oxetan-3-yl)phenyl)-6-((3-fluoro-3-methylazetidin-1-yl)methyl)pyrimidine-4-carboxamide]
IC50 (c-Cbl): 350 nM | (fold-selectivity) (Cbl-b): (1.3x) | IC50 (Cbl-b): 270 nM

Cn1cnnc1[C@@H](F)C1(c2cccc(NC(=O)c3cc(CN4CC(C)(F)C4)nc(C4CC4)n3)c2)COC1 [Compound 21, 2-cyclopropyl-6-[(3-fluoro-3-methyl-azetidin-1-yl)methyl]-N-[3-[3-[(S)-fluoro-(4-methyl-1,2,4-triazol-3-yl)methyl]oxetan-3-yl]phenyl]pyrimidine-4-carboxamide]
IC50 (c-Cbl): 670 nM | (fold-selectivity) (Cbl-b): (1.3x) | IC50 (Cbl-b): 510 nM

C[C@@H](c1cc(C(=O)Nc2cccc(C3([C@@H](F)c4nncn4C)COC3)c2)nc(C2CC2)c1)N1CCC2(CC2)C1 [Compound 22, 4-((S)-1-(5-azaspiro[2.4]heptan-5-yl)ethyl)-6-cyclopropyl-N-(3-(3-((R)-fluoro(4-methyl-4H-1,2,4-triazol-3-yl)methyl)oxetan-3-yl)phenyl)picolinamide]
IC50 (c-Cbl): 10 nM | (fold-selectivity) (Cbl-b): (0.87x) | IC50 (Cbl-b): 12 nM

C[C@H](c1cc(C(=O)Nc2cccc(C3([C@@H](F)c4nncn4C)COC3)c2)nc(C2CC2)c1)N1CCC2(CC2)C1 [Compound 23, 4-((R)-1-(5-azaspiro[2.4]heptan-5-yl)ethyl)-6-cyclopropyl-N-(3-(3-((R)-fluoro(4-methyl-4H-1,2,4-triazol-3-yl)methyl)oxetan-3-yl)phenyl)picolinamide]
IC50 (c-Cbl): 47 nM | (fold-selectivity) (Cbl-b): (0.94x) | IC50 (Cbl-b): 50 nM

C[C@@H](c1cc(C(=O)Nc2cccc(C3([C@H](F)c4nncn4C)COC3)c2)nc(C2CC2)c1)N1CCC2(CC2)C1 [Compound 24, 4-((S)-1-(5-azaspiro[2.4]heptan-5-yl)ethyl)-6-cyclopropyl-N-(3-(3-((S)-fluoro(4-methyl-4H-1,2,4-triazol-3-yl)methyl)oxetan-3-yl)phenyl)picolinamide]
IC50 (c-Cbl): 58 nM | (fold-selectivity) (Cbl-b): (0.92x) | IC50 (Cbl-b): 63 nM

C[C@H](c1cc(C(=O)Nc2cccc(C3([C@H](F)c4nncn4C)COC3)c2)nc(C2CC2)c1)N1CCC2(CC2)C1 [Compound 25, 4-((R)-1-(5-azaspiro[2.4]heptan-5-yl)ethyl)-6-cyclopropyl-N-(3-(3-((S)-fluoro(4-methyl-4H-1,2,4-triazol-3-yl)methyl)oxetan-3-yl)phenyl)picolinamide]
IC50 (c-Cbl): 20 nM | (fold-selectivity) (Cbl-b): (1.0x) | IC50 (Cbl-b): 20 nM

C[C@H](Cc1nncn1C)c1cccc(NC(=O)c2nc(C(F)(F)F)c(CN3CCC4(CC4)C3)[nH]2)c1 [Compound 26, (R)-5-(5-azaspiro[2.4]heptan-5-ylmethyl)-N-(3-(1-(4-methyl-4H-1,2,4-triazol-3-yl)propan-2-yl)phenyl)-4-(trifluoromethyl)-1H-imidazole-2-carboxamide]
IC50 (c-Cbl): 2200 nM | (fold-selectivity) (Cbl-b): (1.5x) | IC50 (Cbl-b): 1500 nM
